According to the supplement of paper PMC10307832:

Key:
Assay in all cases: relative viability (nuclei count vs DMSO), 5 days (fraction); higher = more cells survive
COR-L23 = system: COR-L23
Summary of the method: (§1)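 Lung cancer cell lines were pin-tool dosed in 1536-well plates on the day after seeding, with either a lone drug or a fixed anchor-drug dose plus five library-drug doses (not always all listed) in √10 steps. Nuclei were counted on 4× images after 5 days. Relative viability is the ratio of treated-well to vehicle-well nuclei counts, with each value a median of duplicate plates.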

ChaGo-K-1 = system: ChaGo-K-1
Summary of the method: as §1

EPLC-272H = system: EPLC-272H
Summary of the method: as §1

HCC-366 = system: HCC-366
Summary of the method: as §1

NCI-H1648 = system: NCI-H1648
Summary of the method: as §1

NCI-H1915 = system: NCI-H1915
Summary of the method: as §1

NCI-H838 = system: NCI-H838
Summary of the method: as §1

SW 900 = system: SW 900
Summary of the method: as §1

A549 = system: A549
Summary of the method: as §1

Q: Which results are given for `COCC1(CO)C(=O)C2CCN1CC2` (stereo not given) [PRIMA-1MET] + CC(=O)c1c(C)c2cnc(Nc3ccc(N4CCNCC4)cn3)nc2n(C2CCCC2)c1=O [Palbociclib] (partner 0.5 µM)?
A: relative viability (COR-L23; first compound 0.2 µM): 0.291; relative viability (COR-L23; first compound 0.6325 µM): 0.191; relative viability (COR-L23; first compound 2 µM): 0.251; relative viability (COR-L23; first compound 6.325 µM): 0.353; relative viability (COR-L23; first compound 20 µM): 0.0222; relative viability (ChaGo-K-1; first compound 0.2 µM): 0.989; relative viability (ChaGo-K-1; first compound 0.6325 µM): 0.897; relative viability (ChaGo-K-1; first compound 2 µM): 0.917; relative viability (ChaGo-K-1; first compound 6.325 µM): 0.906; relative viability (ChaGo-K-1; first compound 20 µM): 0.836; relative viability (EPLC-272H; first compound 0.2 µM): 0.312; relative viability (EPLC-272H; first compound 0.6325 µM): 0.276; relative viability (EPLC-272H; first compound 2 µM): 0.329; relative viability (EPLC-272H; first compound 6.325 µM): 0.336; relative viability (EPLC-272H; first compound 20 µM): 0.289; relative viability (HCC-366; first compound 0.2 µM): 0.433; relative viability (HCC-366; first compound 0.6325 µM): 0.31; relative viability (HCC-366; first compound 2 µM): 0.382; relative viability (HCC-366; first compound 6.325 µM): 0.407; relative viability (HCC-366; first compound 20 µM): 0.0167; relative viability (NCI-H1648; first compound 0.2 µM): 0.251; relative viability (NCI-H1648; first compound 2 µM): 0.283; relative viability (NCI-H1648; first compound 20 µM): 0.283; relative viability (NCI-H1915; first compound 0.2 µM): 0.507; relative viability (NCI-H1915; first compound 0.6325 µM): 0.496; relative viability (NCI-H1915; first compound 2 µM): 0.451; relative viability (NCI-H1915; first compound 6.325 µM): 0.518; relative viability (NCI-H1915; first compound 20 µM): 0.523; relative viability (NCI-H838; first compound 0.2 µM): 0.261; relative viability (NCI-H838; first compound 0.6325 µM): 0.188; relative viability (NCI-H838; first compound 2 µM): 0.207; relative viability (NCI-H838; first compound 6.325 µM): 0.22; relative viability (NCI-H838; first compound 20 µM): 0.232; relative viability (SW 900; first compound 0.2 µM): 0.601; relative viability (SW 900; first compound 0.6325 µM): 0.564; relative viability (SW 900; first compound 6.325 µM): 0.559; relative viability (SW 900; first compound 20 µM): 0.0834

Q: Which results are given for `COCC1(CO)C(=O)C2CCN1CC2` (stereo not given) [PRIMA-1MET] + CC(=O)Nc1cccc(-n2c(=O)n(C3CC3)c(=O)c3c(Nc4ccc(I)cc4F)n(C)c(=O)c(C)c32)c1 [Trametinib] (partner 0.02 µM)?
A: relative viability (COR-L23; first compound 0.2 µM): 0.247; relative viability (COR-L23; first compound 0.6325 µM): 0.532; relative viability (COR-L23; first compound 2 µM): 0.495; relative viability (COR-L23; first compound 6.325 µM): 0.357; relative viability (COR-L23; first compound 20 µM): 0.0237; relative viability (ChaGo-K-1; first compound 0.2 µM): 0.996; relative viability (ChaGo-K-1; first compound 0.6325 µM): 0.735; relative viability (ChaGo-K-1; first compound 2 µM): 0.849; relative viability (ChaGo-K-1; first compound 6.325 µM): 0.891; relative viability (ChaGo-K-1; first compound 20 µM): 0.857; relative viability (EPLC-272H; first compound 0.2 µM): 0.281; relative viability (EPLC-272H; first compound 0.6325 µM): 0.303; relative viability (EPLC-272H; first compound 2 µM): 0.272; relative viability (EPLC-272H; first compound 6.325 µM): 0.29; relative viability (EPLC-272H; first compound 20 µM): 0.216; relative viability (HCC-366; first compound 0.2 µM): 0.288; relative viability (HCC-366; first compound 0.6325 µM): 0.289; relative viability (HCC-366; first compound 2 µM): 0.263; relative viability (HCC-366; first compound 6.325 µM): 0.431; relative viability (HCC-366; first compound 20 µM): 0.0205; relative viability (NCI-H1648; first compound 0.2 µM): 0.396; relative viability (NCI-H1648; first compound 2 µM): 0.445; relative viability (NCI-H1648; first compound 20 µM): 0.553; relative viability (NCI-H1915; first compound 0.2 µM): 0.166; relative viability (NCI-H1915; first compound 0.6325 µM): 0.246; relative viability (NCI-H1915; first compound 2 µM): 0.248; relative viability (NCI-H1915; first compound 6.325 µM): 0.218; relative viability (NCI-H1915; first compound 20 µM): 0.31; relative viability (NCI-H838; first compound 0.2 µM): 0.55; relative viability (NCI-H838; first compound 0.6325 µM): 0.523; relative viability (NCI-H838; first compound 2 µM): 0.416; relative viability (NCI-H838; first compound 6.325 µM): 0.553; relative viability (NCI-H838; first compound 20 µM): 0.557; relative viability (SW 900; first compound 0.2 µM): 0.615; relative viability (SW 900; first compound 0.6325 µM): 0.765; relative viability (SW 900; first compound 6.325 µM): 0.676; relative viability (SW 900; first compound 20 µM): 0.131

Q: With `COCC1(CO)C(=O)C2CCN1CC2` (stereo not given) [PRIMA-1MET] + Nc1ncn([C@H]2C[C@H](O)[C@@H](CO)O2)c(=O)n1 [Decitabine] (partner 2 µM) as the molecule, how does the relative viability (A549; first compound 0.2 µM) read?
A: The relative viability was 0.284.

Q: What about the relative viability (A549; first compound 2 µM) of the same molecule?
A: Its relative viability is 0.253.

Q: And the relative viability (A549; first compound 6.325 µM)?
A: The relative viability was 0.25.

Q: What about the relative viability (A549; first compound 20 µM) of the same molecule?
A: Its relative viability is 0.237.

Q: What about the relative viability (COR-L23; first compound 0.2 µM) of the same molecule?
A: Its relative viability is 0.538.

Q: And the relative viability (COR-L23; first compound 0.6325 µM)?
A: Its relative viability is 0.243.

Q: What about the relative viability (COR-L23; first compound 2 µM) of the same molecule?
A: Its relative viability is 0.397.

Q: And the relative viability (COR-L23; first compound 6.325 µM)?
A: The relative viability was 0.439.

Q: And the relative viability (COR-L23; first compound 20 µM)?
A: Its relative viability is 0.036.

Q: And the relative viability (ChaGo-K-1; first compound 0.2 µM)?
A: The relative viability was 0.514.

Q: What about the relative viability (ChaGo-K-1; first compound 0.6325 µM) of the same molecule?
A: Its relative viability is 0.362.

Q: What about the relative viability (ChaGo-K-1; first compound 2 µM) of the same molecule?
A: The relative viability was 0.557.

Q: And the relative viability (ChaGo-K-1; first compound 6.325 µM)?
A: The relative viability was 0.518.

Q: What about the relative viability (ChaGo-K-1; first compound 20 µM) of the same molecule?
A: Its relative viability is 0.518.

Q: What about the relative viability (EPLC-272H; first compound 0.2 µM) of the same molecule?
A: The relative viability was 0.353.

Q: And the relative viability (EPLC-272H; first compound 0.6325 µM)?
A: Its relative viability is 0.306.

Q: What about the relative viability (EPLC-272H; first compound 2 µM) of the same molecule?
A: The relative viability was 0.323.

Q: And the relative viability (EPLC-272H; first compound 6.325 µM)?
A: Its relative viability is 0.392.

Q: And the relative viability (EPLC-272H; first compound 20 µM)?
A: Its relative viability is 0.272.

Q: What about the relative viability (HCC-366; first compound 0.2 µM) of the same molecule?
A: Its relative viability is 0.325.

Q: And the relative viability (HCC-366; first compound 0.6325 µM)?
A: Its relative viability is 0.12.

Q: And the relative viability (HCC-366; first compound 2 µM)?
A: The relative viability was 0.294.

Q: What about the relative viability (HCC-366; first compound 6.325 µM) of the same molecule?
A: Its relative viability is 0.423.

Q: What about the relative viability (HCC-366; first compound 20 µM) of the same molecule?
A: Its relative viability is 0.0554.

Q: What about the relative viability (NCI-H1648; first compound 0.2 µM) of the same molecule?
A: The relative viability was 0.433.

Q: What about the relative viability (NCI-H1648; first compound 2 µM) of the same molecule?
A: Its relative viability is 0.451.

Q: And the relative viability (NCI-H1648; first compound 20 µM)?
A: The relative viability was 0.475.

Q: And the relative viability (NCI-H1915; first compound 0.2 µM)?
A: Its relative viability is 0.278.

Q: What about the relative viability (NCI-H1915; first compound 0.6325 µM) of the same molecule?
A: The relative viability was 0.234.

Q: And the relative viability (NCI-H1915; first compound 2 µM)?
A: Its relative viability is 0.252.

Q: What about the relative viability (NCI-H1915; first compound 6.325 µM) of the same molecule?
A: Its relative viability is 0.256.

Q: What about the relative viability (NCI-H1915; first compound 20 µM) of the same molecule?
A: The relative viability was 0.27.

Q: And the relative viability (NCI-H838; first compound 0.2 µM)?
A: Its relative viability is 0.435.

Q: And the relative viability (NCI-H838; first compound 0.6325 µM)?
A: Its relative viability is 0.312.

Q: And the relative viability (NCI-H838; first compound 2 µM)?
A: The relative viability was 0.474.

Q: What about the relative viability (NCI-H838; first compound 6.325 µM) of the same molecule?
A: The relative viability was 0.472.

Q: And the relative viability (NCI-H838; first compound 20 µM)?
A: Its relative viability is 0.453.

Q: And the relative viability (SW 900; first compound 0.2 µM)?
A: Its relative viability is 0.402.

Q: What about the relative viability (SW 900; first compound 0.6325 µM) of the same molecule?
A: The relative viability was 0.386.

Q: What about the relative viability (SW 900; first compound 6.325 µM) of the same molecule?
A: Its relative viability is 0.425.

Q: What about the relative viability (SW 900; first compound 20 µM) of the same molecule?
A: The relative viability was 0.0976.
